The results in this text go back to ChEMBL document CHEMBL1759962, “Anti-inflammatory effect of soyasaponins through suppressing nitric oxide production in LPS-stimulated RAW 264.7 cells by attenuation of NF-κB-mediated nitric oxide synthase expression” (Bioorg Med Chem Lett, 2011).

The source made the active and inactive calls. No cut-off for these calls is given here.

In data set [1] the test system is RAW264.7. The data set is described as follows: Inhibition of iNOS mRNA expression in LPS-stimulated mouse RAW264.7 cells at 50 ug/ml after 24 hrs by real time fluorescent quantitative real time PCR relative to negative control. It counts as functional. Background: Real-time PCR tracks product formation cycle by cycle.
For data set [2], the system named is RAW264.7. The data set is described as follows: Inhibition of iNOS mRNA expression in LPS-stimulated mouse RAW264.7 cells at 200 ug/ml after 24 hrs by real time fluorescent quantitative real time PCR relative to negative control. The class given is functional.
For data set [3], the target named is T1, Nitric oxide synthase, inducible (Mus musculus) (UniProt P29477).
T1 sequence (whole entry): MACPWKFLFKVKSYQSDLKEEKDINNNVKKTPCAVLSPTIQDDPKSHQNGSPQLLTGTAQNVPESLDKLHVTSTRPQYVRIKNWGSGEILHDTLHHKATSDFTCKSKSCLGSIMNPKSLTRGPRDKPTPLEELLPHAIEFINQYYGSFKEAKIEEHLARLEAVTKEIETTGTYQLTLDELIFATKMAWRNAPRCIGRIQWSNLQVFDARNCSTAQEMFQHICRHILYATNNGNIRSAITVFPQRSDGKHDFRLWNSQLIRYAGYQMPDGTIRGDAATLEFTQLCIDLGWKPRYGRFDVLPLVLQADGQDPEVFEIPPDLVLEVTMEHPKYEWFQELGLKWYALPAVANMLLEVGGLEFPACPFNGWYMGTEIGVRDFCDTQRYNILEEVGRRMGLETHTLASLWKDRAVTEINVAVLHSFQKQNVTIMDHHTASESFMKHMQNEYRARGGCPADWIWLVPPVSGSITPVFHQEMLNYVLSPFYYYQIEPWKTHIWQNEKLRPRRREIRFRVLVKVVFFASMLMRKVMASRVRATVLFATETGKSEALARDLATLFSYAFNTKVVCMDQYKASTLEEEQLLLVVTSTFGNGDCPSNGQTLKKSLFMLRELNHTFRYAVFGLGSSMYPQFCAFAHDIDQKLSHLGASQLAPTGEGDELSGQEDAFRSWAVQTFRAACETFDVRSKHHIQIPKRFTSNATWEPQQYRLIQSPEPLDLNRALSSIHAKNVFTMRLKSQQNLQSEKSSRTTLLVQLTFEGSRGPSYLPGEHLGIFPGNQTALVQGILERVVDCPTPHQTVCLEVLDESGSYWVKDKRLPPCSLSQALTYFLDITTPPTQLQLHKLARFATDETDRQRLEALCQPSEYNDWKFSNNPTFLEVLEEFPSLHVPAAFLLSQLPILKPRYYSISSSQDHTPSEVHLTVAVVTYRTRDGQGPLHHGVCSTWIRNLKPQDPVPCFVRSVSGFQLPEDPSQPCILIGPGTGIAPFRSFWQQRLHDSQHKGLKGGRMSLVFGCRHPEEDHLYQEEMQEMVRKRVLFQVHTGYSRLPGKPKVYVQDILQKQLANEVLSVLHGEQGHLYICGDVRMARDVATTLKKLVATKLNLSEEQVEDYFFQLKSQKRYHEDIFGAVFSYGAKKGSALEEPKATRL
The data set can be described thus: Inhibition of iNOS activity in LPS-stimulated mouse RAW264.7 cells assessed as conversion of L-[…] arginine to L-[3H] citruline per mg of protein at 100 ug/ml after 24 hrs. The class given is cell-based.

For data set [4], the target named is T1, Nitric oxide synthase, inducible (Mus musculus). The data set can be described thus: Inhibition of iNOS activity in LPS-stimulated mouse RAW264.7 cells assessed as conversion of L-[…] arginine to L-[3H] citruline per mg of protein at 50 ug/ml after 24 hrs. The class given is cell-based.
For data set [5] the target is unchanged. The data set is described as follows: Inhibition of iNOS-mediated nitric oxide production in LPS-stimulated mouse RAW264.7 cells measured after 24 hrs by Griess reaction method. It counts as cell-based.
The target is the same in data set [6]. The data set can be described thus: Inhibition of iNOS activity in LPS-stimulated mouse RAW264.7 cells assessed as conversion of L-[…] arginine to L-[3H] citruline per mg of protein at 200 ug/ml after 24 hrs. The class given is cell-based.
In data set [7] the test system is RAW264.7. The data set can be described thus: Antiinflammatory activity in mouse RAW264.7 cells assessed as inhibition of LPS-induced IL-6 release by ELISA. The class given is functional, cell-based. (In general: An ELISA detects its analyte on a solid surface through an enzyme-linked reagent.)
Data set [8] deals with RAW264.7. The data set can be described thus: Antiinflammatory activity in mouse RAW264.7 cells assessed as inhibition of LPS-induced IL-1 release by ELISA. It counts as functional, cell-based.
Data set [9] relates to RAW264.7. The data set can be described thus: Antiinflammatory activity in mouse RAW264.7 cells assessed as inhibition of LPS-induced TNFalpha release by ELISA. The class given is functional, cell-based.
For data set [10], the target named is T1, Nitric oxide synthase, inducible (Mus musculus). The data set can be described thus: Inhibition of iNOS activity in LPS-stimulated mouse RAW264.7 cells assessed as conversion of L-[…] arginine to L-[3H] citruline per mg of protein after 24 hrs. The class given is cell-based.
For data set [11], the system named is RAW264.7. The data set is described as follows: Cytotoxicity against mouse RAW264.7 cells at 25 to 200 ug/ml after 24 hrs by MTT assay. The class given is cell-based. The settings on record: raw264.7, 24 h. On the technique in general: Formazan colour is commonly taken as a measure of viable cells.
Data set [12] concerns the target T1, Nitric oxide synthase, inducible (Mus musculus). The data set can be described thus: Inhibition of iNOS activity in LPS-stimulated mouse RAW264.7 cells assessed as conversion of L-[…] arginine to L-[3H] citruline per mg of protein at 25 ug/ml after 24 hrs. The class given is cell-based.
Data set [13] relates to RAW264.7. The data set can be described thus: Inhibition of LPS-induced NF-kappaB activation in mouse RAW264.7 cells expressing pNF-kappaB-LUC at 25 to 200 ug/ml after 24 hrs by luciferase reporter gene assay relative to unstimulated cells. The class given is cell-based.
Data set [14] deals with RAW264.7. The data set can be described thus: Inhibition of iNOS mRNA expression in LPS-stimulated mouse RAW264.7 cells at 100 ug/ml after 24 hrs by real time fluorescent quantitative real time PCR relative to negative control. It counts as functional.
Data set [15] deals with RAW264.7. The data set is described as follows: Inhibition of iNOS mRNA expression in LPS-stimulated mouse RAW264.7 cells at 25 ug/ml after 24 hrs by real time fluorescent quantitative real time PCR relative to negative control. It counts as functional.
Data set [16] concerns the target T1, Nitric oxide synthase, inducible (Mus musculus). The data set can be described thus: Inhibition of iNOS-mediated nitric oxide production in LPS-stimulated mouse RAW264.7 cells at 25 to 200 ug/ml measured after 24 hrs by Griess reaction method. It counts as cell-based.
The target is the same in data set [17]. The data set can be described thus: Inhibition of iNOS activity in LPS-stimulated mouse RAW264.7 cells assessed as conversion of L-[…] arginine to L-[3H] citruline per mg of protein at 10 ug/ml after 24 hrs. The class given is cell-based.
Data set [18] shares this target. The data set is described as follows: Inhibition of iNOS-mediated nitric oxide production in LPS-stimulated mouse RAW264.7 cells at 10 ug/ml measured after 24 hrs by Griess reaction method. It counts as cell-based.

Turning to `CC1(C)C[C@H]2C3=CC[C@@H]4[C@@]5(C)CC[C@H](O[C@@H]6O[C@H](C(=O)O)[C@@H](O)[C@H](O)[C@H]6O[C@@H]6O[C@H](CO)[C@H](O)[C@H](O)[C@H]6O[C@@H]6O[C@H](CO)[C@@H](O)[C@H](O)[C@H]6O)[C@](C)(CO)[C@@H]5CC[C@@]4(C)[C@]3(C)CC[C@@]2(C)[C@H](O[C@@H]2OC[C@H](O)[C@@H](O)[C@H]2O[C@@H]2O[C@H](CO)[C@@H](O)[C@@H](O)[C@H]2O)[C@@H]1O` [SOYASAPONIN A1], the “fold change (FC)” value in data set [1] was determined as 11.3; in [2] it was 5.1; in [14], 7.5; in data set [15], 11.6. The Activity in [3] was 11.4 pmol/min; in [4] it was 18.3 pmol/min; in data set [6], 6.2 pmol/min; in data set [11], “Non-toxic”; in data set [12], 22.3 pmol/min. Further, the inhibition entry in data set [5], in data set [10] and in [13] was “Dose-dependent effect” each time. In addition, the inhibition result in [7] and in data set [8] was “inactive” each time. For the same compound, the inhibition entry in data set [9] was “Active”.

`CC1(C)C[C@H]2C3=CC[C@@H]4[C@@]5(C)CC[C@H](O[C@@H]6O[C@H](C(=O)O)[C@@H](O)[C@H](O)[C@H]6O[C@@H]6O[C@H](CO)[C@@H](O)[C@@H](O)[C@H]6O)[C@](C)(CO)[C@@H]5CC[C@@]4(C)[C@]3(C)CC[C@@]2(C)[C@H](O[C@@H]2OC[C@H](O)[C@@H](O)[C@H]2O[C@@H]2O[C@H](CO)[C@@H](O)[C@@H](O)[C@H]2O)[C@@H]1O` [SOYASAPONIN A2]: the “fold change (FC)” value in data set [1] is 10.7; in data set [2], 4.4; in data set [14], 5.7; in data set [15], 11.4. Moreover, the Activity in [3] is 14 pmol/min; in data set [4], 19 pmol/min; in data set [6] it was 9.3 pmol/min; in data set [11], “Non-toxic”; in [12], 23.6 pmol/min. The inhibition entry in [5], in [10] and in data set [13] was “Dose-dependent effect” in each case. Besides, the inhibition entry in [7] and in [8] was “inactive” throughout. For the same compound, in data set [9], the inhibition result was “Active”.

For the compound `CC1(C)C[C@H]2C3=CC[C@@H]4[C@@]5(C)CC[C@H](O)[C@](C)(CO)[C@@H]5CC[C@@]4(C)[C@]3(C)CC[C@@]2(C)[C@H](O)[C@@H]1O` [SOYASAPOGENOL A], the “fold change (FC)” value in data set [1] is listed as 15; in data set [2] it was 15.3; in [14] it was 15.1; in data set [15], 15.1. The Activity in [3] was 26.9 pmol/min; in data set [4], 27 pmol/min; in data set [6], 27 pmol/min; in [11] it was “Non-toxic”; in [12], 27.7 pmol/min. Further, the inhibition result in data set [7], in data set [8], in data set [9] and in data set [16] was “inactive” in each case.

Consider `N=C(N)NN`, for which the Activity in data set [17] is 2.7 pmol/min. The inhibition result in data set [18] was “inactive”.

As to `CC1(C)C[C@@H](O)[C@]2(C)CC[C@]3(C)C(=CC[C@@H]4[C@@]5(C)CC[C@H](O)[C@](C)(CO)[C@@H]5CC[C@]43C)[C@@H]2C1` [SOYASAPOGENOL B], the “fold change (FC)” value amounted to 14.8 in data set [1], 15.4 in data set [2], 14.7 in [14] and 14.7 in data set [15]. Further, the Activity in [3] is 26.6 pmol/min; in data set [4] it was 26.5 pmol/min; in data set [6] it was 27.1 pmol/min; in data set [11], “Non-toxic”; in data set [12], 27.4 pmol/min. The inhibition result in data set [7], in [8], in data set [9] and in data set [16] was “inactive” throughout.

Take `C[C@@H]1O[C@@H](O[C@H]2[C@H](O[C@H]3[C@H](O[C@H]4CC[C@@]5(C)[C@@H](CC[C@]6(C)[C@@H]5CC=C5[C@@H]7CC(C)(C)C[C@@H](O)[C@]7(C)CC[C@]56C)[C@@]4(C)CO)O[C@H](C(=O)O)[C@@H](O)[C@@H]3O)O[C@H](CO)[C@H](O)[C@@H]2O)[C@H](O)[C@H](O)[C@H]1O` [SOYASAPONIN I]: the “fold change (FC)” value stood at 8.8 in [1], 5.6 in [2], 6.8 in data set [14] and 11.1 in [15]. Also, the Activity in [3] was 11.7 pmol/min; in [4] it was 16.6 pmol/min; in data set [6], 9.2 pmol/min; in [11], “Non-toxic”; in [12], 24 pmol/min. In addition, the inhibition result in [5], in data set [10] and in data set [13] was “Dose-dependent effect” throughout. Besides, the inhibition entry in data set [7] and in [8] was “inactive” throughout. Further, the inhibition result in data set [9] was “Active”.
